The source of these data is ChEMBL document CHEMBL1201862, “PubChem BioAssay data set” (2004).

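Protocol summary: plate cells (96-well), add compound at 5 concentrations, incubate 48 h, interpolate endpoints linearly. GI50 = concentration required for 50% inhibition of growth.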 Calls of active or inactive are those of the source. Rule as the data show it: active = GI50 up to about 1.1 µM and inactive = higher.

Common to all, as to assay: NCI anticancer screen, dose series, 48 h
The subject of assay [1] is BT-549.
In assay [2] the test system is COLO 205.
For assay [3], the system named is DU-145.
Assay [4] has as its system HCT-116.
The test system of assay [5] is HOP-92.
The test system of assay [6] is M14.
In assay [7] the test system is NCI-H522.
Assay [8] relates to OVCAR-5.
Assay [9] concerns PC-3.
The test system of assay [10] is RPMI-8226.
Assay [11] has as its system SF-539.
In assay [12] the test system is SK-MEL-28.
For assay [13], the system named is SN12C.
Assay [14] concerns SR.
The subject of assay [15] is TK-10.
The subject of assay [16] is U-251.
Assay [17] concerns UACC-257.
Assay [18] concerns CCRF-CEM.
The test system of assay [19] is RXF 393.

Take `S=C(S)NCCCn1ccnc1`: the GI50 in assay [1], in assay [2], in assay [3], in [4], in assay [5] and in assay [6] was > 100 µM (inactive) each time. The GI50 in [7], in assay [8], in assay [9], in assay [10], in assay [11] and in assay [12] was > 100 µM (inactive) each time. Besides, the GI50 in [13], in assay [14], in assay [15], in assay [16] and in assay [17] was > 100 µM (inactive) each time.

In the case of `CN(C)CCNC(=O)c1cccc(NC(=O)c2ccccc2)c1[N+](=O)[O-]`, the GI50 is 53.8 µM (inactive) in assay [1]; > 100 µM (inactive) in [18]; 8.65 µM (inactive) in assay [2]; > 10 µM (inactive) in assay [3]; > 100 µM (inactive) in assay [4]; > 100 µM (inactive) in [6]. Also, the GI50 in assay [7], in [8], in assay [9], in assay [12], in assay [13] and in [15] was > 100 µM (inactive) each time. Further, the GI50 in [16] and in assay [17] was > 100 µM (inactive) throughout.

For the compound `CC(=O)SSC1(Cl)C(C)(C)C(Cl)(SSC(C)=O)C1(C)C` (stereo not drawn), the GI50 in [1] was > 100 µM (inactive); in assay [18], 24 µM (inactive); in assay [2] it was > 100 µM (inactive); in assay [3], 29.6 µM (inactive); in [4], 44 µM (inactive); in assay [5], > 100 µM (inactive). The GI50 in assay [6] is 84.1 µM (inactive); in [7] it was 38.8 µM (inactive); in assay [8] it was > 100 µM (inactive); in assay [9], 41.3 µM (inactive); in [19], 21 µM (inactive); in [11], 24.5 µM (inactive). Moreover, the GI50 in assay [12] was > 100 µM (inactive); in assay [13], 77.8 µM (inactive); in [15], 75.2 µM (inactive); in assay [16], 33.3 µM (inactive); in [17], 41.3 µM (inactive).

Take `COc1ccc(C2c3c[nH]nc3CC3CCCCC32)cc1` (stereo not drawn): the GI50 in assay [1] was 16.6 µM (inactive); in [18], 21.9 µM (inactive); in assay [3], 13.4 µM (inactive); in assay [4], 17.8 µM (inactive); in assay [6] it was 17.6 µM (inactive); in assay [7], 19.8 µM (inactive). For the same compound, the GI50 is 20.5 µM (inactive) in [8]; 14.8 µM (inactive) in [9]; 19.8 µM (inactive) in assay [10]; 18.3 µM (inactive) in [12]; 16.9 µM (inactive) in [13]; 20.9 µM (inactive) in [14]. In addition, the GI50 was 19.7 µM (inactive) in assay [15], 15.5 µM (inactive) in [16] and 22.4 µM (inactive) in assay [17].

Take `CN(C)C(=O)C(F)(F)C(c1ccc(C(F)(F)F)cc1)C1C(=O)N(C)C(=O)N(C)C1=O` (stereo not drawn): the GI50 in assay [1], in assay [18], in [2], in [3], in assay [4] and in assay [5] was > 100 µM (inactive) throughout. Also, the GI50 in assay [6] was > 100 µM (inactive); in [8], > 100 µM (inactive); in [9], > 100 µM (inactive); in [10], > 100 µM (inactive); in [19] it was 78.3 µM (inactive); in [12], > 100 µM (inactive). Further, the GI50 in [15], in assay [16] and in [17] was > 100 µM (inactive) each time.

Turning to `Cc1cc(C)c(S(=O)(=O)N2CCN(S(=O)(=O)c3c(C)cc(C)cc3C)OCCCCCO2)c(C)c1`, the GI50 is > 100 µM (inactive) in assay [1]; > 100 µM (inactive) in [18]; > 100 µM (inactive) in assay [2]; > 100 µM (inactive) in assay [3]; > 100 µM (inactive) in [4]; 62.1 µM (inactive) in assay [5]. Further, the GI50 in assay [6] is > 100 µM (inactive); in [7] it was > 100 µM (inactive); in assay [8], > 100 µM (inactive); in assay [9], 6.22 µM (inactive); in assay [12], > 100 µM (inactive); in assay [13], > 100 µM (inactive). The GI50 in assay [15], in [16] and in assay [17] was > 100 µM (inactive) in each case.

On to `CCNc1nc2c(ncn2C2CC(O)C(COP(=O)(O)O)O2)c(=O)[nH]1` (stereo not drawn), for which the GI50 in [1], in [2], in [3], in assay [4], in assay [5] and in assay [6] was > 100 µM (inactive) in each case. Besides, the GI50 in assay [7], in assay [8], in assay [9], in [10], in [11] and in assay [12] was > 100 µM (inactive) throughout. The GI50 in [13] is > 100 µM (inactive); in assay [14], 86.3 µM (inactive); in assay [15], > 100 µM (inactive); in assay [16], > 100 µM (inactive); in [17], > 100 µM (inactive).

For the compound `COC(=O)c1c2c(cc3c1CC1(Cc4cc5c(cc4C1=O)CCC5)C3)CCC2` (stereo not drawn), the GI50 in assay [1] was 64.6 µM (inactive); in [18], 11 µM (inactive); in [2], 79.3 µM (inactive); in [3], > 100 µM (inactive); in assay [4] it was 13.3 µM (inactive); in assay [6], 90.4 µM (inactive). Further, the GI50 is 19.9 µM (inactive) in assay [7]; > 100 µM (inactive) in assay [8]; 6.68 µM (inactive) in [9]; 6.79 µM (inactive) in assay [10]; 97.7 µM (inactive) in assay [11]; 63 µM (inactive) in assay [12]. The GI50 in assay [13] was > 100 µM (inactive); in assay [14], > 10 µM (inactive); in assay [15], 22.8 µM (inactive); in [16], 83.9 µM (inactive); in assay [17], 17.5 µM (inactive).

In the case of `COC(=O)C1(Cc2ccc3c(c2)CCC3)Cc2ccccc2C1`, the GI50 in assay [1] was 69.5 µM (inactive); in assay [18], 11.5 µM (inactive); in [2], 25 µM (inactive); in [3], 39.4 µM (inactive); in assay [4], 26.9 µM (inactive); in [6], 39.7 µM (inactive). Besides, the GI50 in assay [7] is 22.5 µM (inactive); in assay [8] it was 39.3 µM (inactive); in [9], 16.1 µM (inactive); in assay [10], 17.9 µM (inactive); in assay [11] it was 34.4 µM (inactive); in assay [12] it was 74.5 µM (inactive). In addition, the GI50 is 30.1 µM (inactive) in assay [13]; 29.6 µM (inactive) in [14]; 82.8 µM (inactive) in [15]; 42.3 µM (inactive) in assay [16]; 26.4 µM (inactive) in assay [17].

Consider `Nn1c(Nc2ccc(S(N)(=O)=O)cc2)nnc(/C=C/c2c(O)ccc3ccccc23)c1=O`, for which the GI50 is 14.9 µM (inactive) in assay [1]; 4.03 µM (inactive) in assay [18]; 27.1 µM (inactive) in assay [2]; 26.3 µM (inactive) in [3]; 16.3 µM (inactive) in assay [4]; 26.4 µM (inactive) in assay [6]. Besides, the GI50 was 13.5 µM (inactive) in assay [7]; 21.6 µM (inactive) in [8]; 47.2 µM (inactive) in assay [9]; 10.7 µM (inactive) in assay [10]; 35.7 µM (inactive) in assay [11]; 19.3 µM (inactive) in assay [12]. In addition, the GI50 in assay [13] was 11.6 µM (inactive); in assay [14] it was 8.77 µM (inactive); in [16], 39.9 µM (inactive); in assay [17], 27.5 µM (inactive).

In the case of `COc1ccc(OC)c(CNc2ccc(O)c(C(=O)NCCc3ccc(F)cc3)c2)c1`, the GI50 in assay [1] was 17.1 µM (inactive); in assay [18] it was 7.23 µM (inactive); in [2], 18.6 µM (inactive); in assay [3] it was 12.8 µM (inactive); in assay [4], 12.1 µM (inactive); in assay [6], 10.4 µM (inactive). The GI50 in assay [7] is 2.83 µM (inactive); in [8] it was 22.4 µM (inactive); in [9] it was 10.1 µM (inactive); in assay [10], 2.83 µM (inactive); in assay [11] it was 15.8 µM (inactive); in assay [12], 3.3 µM (inactive). The GI50 in assay [13] was 19.5 µM (inactive); in [14], 3.44 µM (inactive); in assay [15] it was 28.9 µM (inactive); in assay [16], 11.9 µM (inactive); in assay [17], 13.5 µM (inactive).

For the compound `CC(=O)O[C@H]1C(=O)[C@@]2(C)[C@H]([C@H](OC(=O)c3ccccc3)[C@]3(O)C[C@H](OC(=O)[C@H](O)[C@@H](NC(=O)CC(C)(C)C)c4ccccc4)C(C)=C1C3(C)C)C1(OC(C)=O)CO[C@@H]1C[C@@H]2O` (stereo partly drawn), the GI50 is 0.0968 µM (active) in assay [1]; 0.00171 µM (active) in assay [18]; 0.0014 µM (active) in [2]; 0.00836 µM (active) in assay [3]; < 0.001 µM (active) in assay [4]; 0.0106 µM (active) in assay [5]. In addition, the GI50 in assay [7] was 0.00143 µM (active); in assay [9], 0.00183 µM (active); in [10] it was < 0.001 µM (active); in assay [19] it was 0.00796 µM (active); in assay [11] it was 0.00127 µM (active); in assay [12], < 0.001 µM (active). Moreover, the GI50 was 0.00287 µM (active) in [13], 0.047 µM (active) in assay [15], 0.00441 µM (active) in assay [16] and 0.00684 µM (active) in assay [17].
